Data published in PubChem BioAssay (NCI).
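Compound exposure: 48 hours, 5 concentrations, 96-well plates. TGI is the concentration that stops growth completely.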

Columns and labels:
Test in all cases: NCI-60 cell line screen, 48 h
UO-31 renal = tested on: UO-31 renal
786-0 renal = tested on: 786-0 renal
SW-620 colon = tested on: SW-620 colon
K-562 leukemia = tested on: K-562 leukemia
MDA-MB-435 = tested on: MDA-MB-435
NCI-H23 lung = tested on: NCI-H23 lung
EKVX NSCLC = tested on: EKVX NSCLC
A498 renal = tested on: A498 renal
MDA-N = tested on: MDA-N
M19-MEL melanoma = tested on: M19-MEL melanoma
DLD-1 colon = tested on: DLD-1 colon
KM20L2 colon = tested on: KM20L2 colon
DMS 273 small cell lung = tested on: DMS 273 small cell lung

COc1ccc(C2(CC(C)O)SCCCS2)cc1 (stereo not given)
TGI (UO-31 renal): > 100 µM
TGI (786-0 renal): > 100 µM
TGI (SW-620 colon): > 100 µM
TGI (K-562 leukemia): > 100 µM
TGI (MDA-MB-435): > 100 µM
TGI (NCI-H23 lung): > 100 µM
TGI (EKVX NSCLC): > 100 µM
TGI (A498 renal): > 100 µM
TGI (MDA-N): > 100 µM

CS(=O)(=O)OCCn1c(=O)n(CCOS(C)(=O)=O)c(=O)n(CCOS(C)(=O)=O)c1=O
TGI (UO-31 renal): > 100 µM
TGI (786-0 renal): > 100 µM
TGI (SW-620 colon): > 100 µM
TGI (K-562 leukemia): > 100 µM
TGI (MDA-MB-435): > 100 µM
TGI (NCI-H23 lung): > 100 µM
TGI (EKVX NSCLC): > 100 µM
TGI (A498 renal): > 100 µM
TGI (MDA-N): > 100 µM

CC(=O)N(C(C)=O)C1=C2c3ccccc3N(S(=O)(=O)c3ccccc3)C2n2c(=O)n(-c3ccccc3)c(=O)n2C1 (stereo not given)
TGI (UO-31 renal): > 100 µM
TGI (M19-MEL melanoma): 94.7 µM
TGI (DLD-1 colon): > 100 µM
TGI (KM20L2 colon): > 100 µM
TGI (786-0 renal): > 100 µM
TGI (SW-620 colon): > 100 µM
TGI (K-562 leukemia): > 100 µM
TGI (NCI-H23 lung): 95.9 µM
TGI (DMS 273 small cell lung): > 100 µM
TGI (EKVX NSCLC): 61.9 µM

CCOC(=O)/C=C(\C)c1ccc(C)cc1C
TGI (UO-31 renal): > 100 µM
TGI (DLD-1 colon): 31.5 µM
TGI (KM20L2 colon): > 100 µM
TGI (SW-620 colon): 37.8 µM
TGI (K-562 leukemia): > 100 µM
TGI (NCI-H23 lung): > 100 µM
TGI (DMS 273 small cell lung): > 100 µM
TGI (EKVX NSCLC): > 100 µM
TGI (A498 renal): > 100 µM

O=c1ccc2cc3ccc4cccc5ccc(c2o1)c3c45
TGI (UO-31 renal): 44.9 µM
TGI (M19-MEL melanoma): > 100 µM
TGI (DLD-1 colon): > 100 µM
TGI (KM20L2 colon): > 100 µM
TGI (SW-620 colon): > 100 µM
TGI (K-562 leukemia): > 100 µM
TGI (NCI-H23 lung): > 100 µM
TGI (EKVX NSCLC): > 100 µM
TGI (A498 renal): 44.9 µM

O=C1/C(=C\c2cccc(Oc3ccccc3)c2)S(=O)(=O)C(c2ccccc2)N1Cc1ccccc1 (stereo not given)
TGI (UO-31 renal): 47.9 µM
TGI (786-0 renal): 40.1 µM
TGI (SW-620 colon): > 100 µM
TGI (K-562 leukemia): > 100 µM
TGI (MDA-MB-435): 96.5 µM
TGI (NCI-H23 lung): > 100 µM
TGI (EKVX NSCLC): 71.9 µM
TGI (A498 renal): > 100 µM
TGI (MDA-N): 95.5 µM

BrC/C=C/C[P+](c1ccccc1)(c1ccccc1)c1ccccc1
TGI (UO-31 renal): > 100 µM
TGI (M19-MEL melanoma): 33.2 µM
TGI (KM20L2 colon): > 100 µM
TGI (786-0 renal): > 100 µM
TGI (SW-620 colon): > 100 µM
TGI (K-562 leukemia): > 100 µM
TGI (NCI-H23 lung): > 100 µM
TGI (DMS 273 small cell lung): 14.2 µM

O=c1cc(N=P(c2ccccc2)(c2ccccc2)c2ccccc2)n(-c2ccccc2)c(=O)n1-c1ccccc1
TGI (UO-31 renal): 34.6 µM
TGI (786-0 renal): 25.2 µM
TGI (SW-620 colon): > 100 µM
TGI (K-562 leukemia): 23.9 µM
TGI (MDA-MB-435): 57.2 µM
TGI (NCI-H23 lung): 32 µM
TGI (EKVX NSCLC): 49.8 µM
TGI (A498 renal): 21.1 µM
TGI (MDA-N): 43.7 µM

O=c1c2ccccc2nc2[nH][nH]c(=S)n12
TGI (UO-31 renal): > 100 µM
TGI (786-0 renal): > 100 µM
TGI (SW-620 colon): > 100 µM
TGI (K-562 leukemia): > 100 µM
TGI (MDA-MB-435): > 100 µM
TGI (NCI-H23 lung): > 100 µM
TGI (EKVX NSCLC): > 100 µM
TGI (A498 renal): > 100 µM
TGI (MDA-N): > 100 µM

CCCn1c(CN(Cc2nc3ccccc3n2CCC)Cc2nc3ccccc3n2CCC)nc2ccccc21
TGI (UO-31 renal): 34.3 µM
TGI (786-0 renal): > 32.3 µM
TGI (SW-620 colon): > 100 µM
TGI (K-562 leukemia): 32.1 µM
TGI (MDA-MB-435): 15.3 µM
TGI (NCI-H23 lung): > 49.6 µM
TGI (EKVX NSCLC): 40.4 µM
TGI (A498 renal): > 64.1 µM
TGI (MDA-N): 25.1 µM

Cc1nn(C(=O)Cc2ccccc2)c2c1C(c1ccc(O)cc1)SC(N)=N2 (stereo not given)
TGI (UO-31 renal): > 100 µM
TGI (786-0 renal): > 100 µM
TGI (SW-620 colon): > 100 µM
TGI (K-562 leukemia): > 100 µM
TGI (MDA-MB-435): > 100 µM
TGI (NCI-H23 lung): > 100 µM
TGI (EKVX NSCLC): > 100 µM
TGI (A498 renal): > 100 µM
TGI (MDA-N): > 100 µM

O=C1C=CC(=O)N1Nc1ccc([N+](=O)[O-])cc1[N+](=O)[O-]
TGI (UO-31 renal): > 100 µM
TGI (M19-MEL melanoma): > 100 µM
TGI (DLD-1 colon): > 100 µM
TGI (KM20L2 colon): > 100 µM
TGI (786-0 renal): > 100 µM
TGI (SW-620 colon): > 100 µM
TGI (K-562 leukemia): > 66.2 µM
TGI (NCI-H23 lung): > 100 µM
TGI (DMS 273 small cell lung): > 100 µM
TGI (EKVX NSCLC): > 100 µM
TGI (A498 renal): > 100 µM

CC(=O)O[C@]12CCCCCC1C1(O)C(O)CCC[C@H]12 (stereo not given in full)
TGI (UO-31 renal): > 100 µM
TGI (M19-MEL melanoma): > 100 µM
TGI (KM20L2 colon): > 100 µM
TGI (786-0 renal): > 100 µM
TGI (SW-620 colon): > 100 µM
TGI (K-562 leukemia): > 100 µM
TGI (NCI-H23 lung): > 100 µM
TGI (DMS 273 small cell lung): > 100 µM
TGI (EKVX NSCLC): > 100 µM

CN(C)c1nc(=NCc2ccccc2)ss1
TGI (UO-31 renal): > 10 µM
TGI (786-0 renal): > 10 µM
TGI (SW-620 colon): > 10 µM
TGI (K-562 leukemia): > 10 µM
TGI (MDA-MB-435): > 10 µM
TGI (NCI-H23 lung): > 10 µM
TGI (EKVX NSCLC): > 10 µM
TGI (A498 renal): > 10 µM
TGI (MDA-N): > 10 µM

Nc1c(-c2cccc3ccccc23)c2ccc([N+](=O)[O-])cc2c(=O)n1-c1nc2ccccc2s1
TGI (UO-31 renal): > 100 µM
TGI (786-0 renal): > 36.2 µM
TGI (SW-620 colon): > 100 µM
TGI (K-562 leukemia): > 100 µM
TGI (MDA-MB-435): > 100 µM
TGI (NCI-H23 lung): > 100 µM
TGI (EKVX NSCLC): 17.4 µM
TGI (A498 renal): > 100 µM
TGI (MDA-N): > 31.6 µM

CC(C)(C)NC(=O)/C(=C\Sc1ccccc1)c1ccc2c(c1)OCO2
TGI (UO-31 renal): > 100 µM
TGI (786-0 renal): > 100 µM
TGI (SW-620 colon): > 100 µM
TGI (K-562 leukemia): > 100 µM
TGI (MDA-MB-435): 47.7 µM
TGI (NCI-H23 lung): > 100 µM
TGI (EKVX NSCLC): > 100 µM
TGI (A498 renal): 59 µM
TGI (MDA-N): 59.8 µM

N#CC(C#N)=CNC(=S)c1ccncc1
TGI (UO-31 renal): 52.8 µM
TGI (786-0 renal): > 100 µM
TGI (SW-620 colon): > 100 µM
TGI (K-562 leukemia): > 100 µM
TGI (MDA-MB-435): > 100 µM
TGI (NCI-H23 lung): > 100 µM
TGI (EKVX NSCLC): > 100 µM
TGI (A498 renal): > 100 µM
TGI (MDA-N): > 100 µM

COc1ccc(C#CC(=O)O)c(OC)c1
TGI (UO-31 renal): > 100 µM
TGI (786-0 renal): > 100 µM
TGI (SW-620 colon): > 100 µM
TGI (K-562 leukemia): > 100 µM
TGI (MDA-MB-435): > 100 µM
TGI (NCI-H23 lung): > 100 µM
TGI (EKVX NSCLC): > 100 µM
TGI (A498 renal): > 100 µM
TGI (MDA-N): > 100 µM

CSc1c(C#N)c(N)n2c1C(=O)N(c1ccccc1)C2=S
TGI (UO-31 renal): > 100 µM
TGI (786-0 renal): > 100 µM
TGI (SW-620 colon): > 100 µM
TGI (K-562 leukemia): > 100 µM
TGI (MDA-MB-435): > 100 µM
TGI (NCI-H23 lung): > 100 µM
TGI (EKVX NSCLC): > 100 µM
TGI (A498 renal): 94.3 µM
TGI (MDA-N): > 100 µM

CC12CC(=O)C3C(C(=O)C1)C32C (stereo not given)
TGI (UO-31 renal): > 100 µM
TGI (786-0 renal): > 100 µM
TGI (SW-620 colon): > 100 µM
TGI (K-562 leukemia): > 100 µM
TGI (MDA-MB-435): > 100 µM
TGI (NCI-H23 lung): > 100 µM
TGI (EKVX NSCLC): > 100 µM
TGI (A498 renal): > 100 µM
TGI (MDA-N): > 100 µM

O=C1C[C@H](Sc2ccccc2)C2(OCCO2)[C@@H](Sc2ccccc2)C1
TGI (UO-31 renal): 3.49 µM
TGI (786-0 renal): > 30.2 µM
TGI (SW-620 colon): 10.4 µM
TGI (K-562 leukemia): 0.673 µM
TGI (MDA-MB-435): 7.97 µM
TGI (NCI-H23 lung): 6.08 µM
TGI (EKVX NSCLC): 17.1 µM
TGI (A498 renal): > 66.7 µM
TGI (MDA-N): 6.83 µM

O=C(NCCCN(CCCCN(CCCNC(=O)C(F)(F)F)Cc1ccccc1)Cc1ccccc1)C(F)(F)F
TGI (UO-31 renal): 17.4 µM
TGI (786-0 renal): 25.1 µM
TGI (SW-620 colon): 34.2 µM
TGI (K-562 leukemia): 30.6 µM
TGI (MDA-MB-435): 33.9 µM
TGI (NCI-H23 lung): 30.9 µM
TGI (EKVX NSCLC): 25.3 µM
TGI (A498 renal): 72.2 µM
TGI (MDA-N): 29.1 µM
